According to ChEMBL document CHEMBL3727357, “Compositions and methods for inhibiting g protein signaling” (2010):
One block for each molecule: values may come before it. The source made the active and inactive calls. The rule behind the calls is not given here.

What was measured:
[1] = biological target: T1, Guanine nucleotide-binding protein G(I)/G(S)/G(T) subunit beta-1/gamma-2 (Homo sapiens, UniProt P62873+P59768); test: Inhibition of biotinylated Gbeta1gamma2 (unknown origin)-mediated PLCbeta3 activation incubated for 16 hrs; type: protein-complex assay
Target sequence in this assay (P59768 2-71 limits assumed): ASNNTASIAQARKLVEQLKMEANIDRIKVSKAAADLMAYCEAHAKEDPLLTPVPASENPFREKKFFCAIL
Target sequence in this assay (P62873 2-340 limits assumed): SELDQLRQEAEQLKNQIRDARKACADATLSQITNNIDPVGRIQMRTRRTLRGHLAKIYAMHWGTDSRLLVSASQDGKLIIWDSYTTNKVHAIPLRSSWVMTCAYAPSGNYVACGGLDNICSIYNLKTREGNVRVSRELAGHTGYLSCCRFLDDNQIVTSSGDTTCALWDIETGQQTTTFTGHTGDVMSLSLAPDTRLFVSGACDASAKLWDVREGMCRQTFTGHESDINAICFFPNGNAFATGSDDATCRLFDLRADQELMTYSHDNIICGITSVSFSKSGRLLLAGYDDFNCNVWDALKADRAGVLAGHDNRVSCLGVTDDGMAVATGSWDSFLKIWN

[2] = biological target: T1, Guanine nucleotide-binding protein G(I)/G(S)/G(T) subunit beta-1/gamma-2; test: Inhibition of biotinylated Gbeta1gamma2 (unknown origin) binding to PLCbeta3 at 10 uM incubated for 16 hrs; type: protein-complex assay
Target sequence in this assay (P59768 2-71 partner limits assumed): as the sequence (P59768 2-71 limits assumed) above
Target sequence in this assay (P62873 2-340 limits assumed): as the sequence (P62873 2-340 limits assumed) above

Mus musculus [3] = test: Improvement of cardiac dysfunction in cardiac-specific calsequestrin mouse with dilated cardiomyopathy at 100 mg/kg, ip qd in presence of beta adrenergic receptor blocker metoprolol; type: functional, organism-based; details: Heart
Mus musculus [4] = test: Increase in survival of cardiac-specific calsequestrin mouse with dilated cardiomyopathy at 100 mg/kg, ip qd in presence of beta adrenergic receptor blocker metoprolol; type: functional, organism-based; details: Heart
HL-60 [5] = test: Effect on fMLP-stimulated ERK1/2 phosphorylation in human HL60 cells at 10 uM incubated for 5 mins prior to fMLP stimulation by Western blot analysis; type: functional, cell-based
CHO [6] = test: Reduction of DPDPE-mediated total inositol phosphate production in CHO cells expressing human mu opioid receptor at 10 uM after 30 mins by scintillation counting analysis in presence of [3H]inositol; type: functional, cell-based; details: Cricetulus griseus
HL-60 [7] = test: Binding affinity to Gbetagamma in human HL60 cells assessed as inhibition of fMLP-stimulated GFP-PHAkt translocation to plasma membrane at 10 uM incubated for 5 mins prior to fMLP stimulation by Western blot analysis; type: cell-based
Mus musculus [8] = test: Potentiation of morphine-induced antinociceptive activity in ICR mouse assessed as morphine ED50 at 100 mg/kg, ip after 20 mins by tail flick test (reference value: 5 mg/kg); type: functional
[9] = biological target: Delta-type opioid receptor (Homo sapiens) (UniProt P41143); test: Inhibition of human Gbetagamma-dependent delta opioid receptor-mediated PLC activation expressed in CHO cells assessed as reduction of Deltorphin 2-mediated total inositol phosphate production at 10 uM after 30 mins by scintillation counting analysis in presence of [3H]inositol; type: functional, cell-based
[10] = Effect on differentiated human HL60 cell motility at 10 uM after 1 hr by Boyden chamber method; type: ADME, cell-based; details: hl-60, 1 h
CHO [11] = test: Inhibition of human Gbetagamma-dependent kappa opioid receptor-mediated PLC activation expressed in CHO cells assessed as reduction of U50,488-mediated total inositol phosphate production at 10 uM after 30 mins by scintillation counting analysis in presence of [3H]inositol; type: cell-based
Mus musculus [12] = organism: Mus musculus; test: Inhibition of Gbetagamma in mouse cardiomyocytes assessed as reduction of agonist-stimulated beta adrenergic receptor-mediated GRK2 recruitment to membrane; type: cell-based
Neutrophil [13] = test: Antiinflammatory activity in primary human neutrophils assessed as inhibition of fMLP-stimulated chemotaxis at 10 uM after 1 hr by Boyden chamber method; type: functional, cell-based
Neutrophil [14] = test: Antiinflammatory activity in primary human neutrophils assessed as inhibition of IL8-stimulated chemotaxis at 10 uM after 1 hr by Boyden chamber method; type: functional, cell-based
Mus musculus [15] = test: Increase in survival of cardiac-specific calsequestrin mouse with dilated cardiomyopathy at 100 mg/kg, ip qd; type: functional, organism-based; details: Heart
Mus musculus [16] = organism: Mus musculus; test: Inhibition of Gbetagamma-GRK2 interaction in mouse cardiomyocytes assessed as increase in contractility; type: cell-based
Mus musculus [17] = test: Improvement of cardiac dysfunction in cardiac-specific calsequestrin mouse with dilated cardiomyopathy at 100 mg/kg, ip qd; type: functional, organism-based; details: Heart
Mus musculus [18] = test: Inhibition of isoproterenol-mediated interstitial cardiac fibrosis in C57/B16 mouse acute model of heart failure at 100 mg/kg, ip qd administered for 7 days by post-mortem test; type: functional, organism-based
HL-60 [19] = test: Binding affinity to Gbetagamma in human HL60 cells assessed as inhibition of fMLP-stimulated GRK2 translocation at 10 uM incubated for 5 mins prior to fMLP stimulation by Western blot analysis; type: cell-based
HL-60 [20] = test: Binding affinity to Gbetagamma in differentiated human HL60 cells assessed as inhibition of fMLP-stimulated Rac1 activation at 10 uM preincubated for 10 mins followed by fMLP challenge for 90 secs by Western blot analysis; type: cell-based
Mus musculus [21] = organism: Mus musculus; test: Inhibition of Gbetagamma-GRK2 interaction in mouse cardiomyocytes assessed as increase in isoproterenol-induced contractility; type: cell-based
HL-60 [22] = test: Antiinflammatory activity in differentiated human HL60 cells assessed as inhibition of fMLP-stimulated cell migration at 10 uM after 1 hr by Boyden chamber method; type: functional, cell-based
Mus musculus [23] = organism: Mus musculus; test: Inhibition of Gbetagamma-GRK2 interaction in mouse cardiomyocytes assessed as increase in isoproterenol-induced contractility in presence of beta adrenergic receptor antagonist propranolol; type: cell-based
Mus musculus [24] = test: Inhibition of isoproterenol-mediated decrease in cardiac function in C57/B16 mouse acute model of heart failure at 100 mg/kg, ip qd administered for 7 days by conscious echocardiography; type: functional, organism-based
Mus musculus [25] = test: Inhibition of isoproterenol-mediated decrease in cardiac morphology in C57/B16 mouse acute model of heart failure at 100 mg/kg, ip qd administered for 7 days by post-mortem test; type: functional, organism-based
[26] = biological target: Mu-type opioid receptor (Homo sapiens) (UniProt P35372); test: Inhibition of human Gbetagamma-dependent mu opioid receptor-mediated PLC activation expressed in CHO cells assessed as reduction of morphine-mediated total inositol phosphate production at 10 uM after 30 mins by scintillation counting analysis in presence of [3H]inositol; type: functional, cell-based
HL-60 [27] = test: Binding affinity to Gbetagamma in human HL60 cells assessed as inhibition of fMLP-stimulated Ca2+ release at 10 uM incubated for 5 mins prior to fMLP stimulation by Fura2-AM dye-based assay; type: cell-based
CHO [28] = test: Effect on total inositol phosphate production in CHO cells expressing human mu opioid receptor at 10 uM after 30 mins by scintillation counting analysis in presence of [3H]inositol; type: ADME, cell-based, Cricetulus griseus; details: chinese hamster, 0.5 h
HL-60 [29] = test: Binding affinity to Gbetagamma in differentiated human HL60 cells assessed as inhibition of fMLP-stimulated superoxide production at 10 uM preincubated for 10 mins followed by nitro blue tetrazolium addition for 5 mins and fMLP addition for 30 mins by NADPH oxidase assay; type: cell-based
[30] = Reduction of membrane associated GRK2 level in mouse cardiomyocytes; type: ADME, cell-based; details: cardiomyocyte
Mus musculus [31] = test: Potentiation of morphine-induced antinociceptive activity in PLCbeta3-deficient ICR mouse at 100 nmol, icv after 20 mins by tail flick test; type: functional, organism-based
Mus musculus [32] = test: Toxicity in C57/B16 mouse assessed as overt toxic effect at 250 mg/kg/day administered for 2 weeks; type: organism-based; details: in vivo, 336 h
Mus musculus [33] = test: Toxicity in C57/B16 mouse assessed as effect on cardiac function at 100 mg/kg, ip qd administered for 7 days by conscious echocardiography; type: organism-based; details: in vivo, 168 h
[34] = biological target: T1, Guanine nucleotide-binding protein G(I)/G(S)/G(T) subunit beta-1/gamma-2; test: Inhibition of biotinylated Gbeta1gamma2 (unknown origin) binding to PLCbeta2 at 10 uM incubated for 16 hrs; type: protein-complex assay
Target sequence in this assay (P59768 2-71 partner limits assumed): as the sequence (P59768 2-71 limits assumed) above
Target sequence in this assay (P62873 2-340 limits assumed): as the sequence (P62873 2-340 limits assumed) above

Mus musculus [35] = test: Toxicity in C57/B16 mouse assessed as effect on cardiac morphology at 100 mg/kg, ip qd administered for 7 days by post-mortem test; type: organism-based; details: in vivo, 168 h
Mus musculus [36] = test: Downregulation of GRK2 expression in […] mouse acute model of heart failure at 100 mg/kg, ip qd administered for 7 days by immunoblot analysis; type: functional, organism-based
Mus musculus [37] = organism: Mus musculus; test: Inhibition of Gbetagamma-GRK2 interaction in mouse cardiomyocytes assessed as increase in contractility in presence of beta adrenergic receptor antagonist propranolol; type: cell-based
[38] = biological target: Mu-type opioid receptor (Homo sapiens) (UniProt P35372); test: Inhibition of human Gbetagamma-dependent mu opioid receptor-mediated PLC activation expressed in CHO cells assessed as reduction of DAMGO-mediated total inositol phosphate production at 10 uM after 30 mins by scintillation counting analysis in presence of [3H]inositol; type: functional, cell-based
CHO [39] = test: Reduction of U50,488-mediated total inositol phosphate production in CHO cells expressing human mu opioid receptor at 10 uM after 30 mins by scintillation counting analysis in presence of [3H]inositol; type: functional, cell-based; details: Cricetulus griseus
HEK293 = test: Effect on carbachol-dependent Ca2+ release in HEK293 cells expressing M3 muscarinic receptor at 10 uM; type: functional, cell-based; details: Homo sapiens
Mus musculus [40] = organism: Mus musculus; test: Inhibition of Gbetagamma-mediated GRK2 recruitment in mouse cardiomyocytes assessed as isoproterenol-induced cAMP generation at 10 uM pretreated for 5 mins followed by isoproterenol induction measured after 15 mins; type: functional, cell-based
Mus musculus [41] = organism: Mus musculus; test: Inhibition of Gbetagamma-mediated GRK2 recruitment in mouse cardiomyocytes assessed as cAMP generation at 10 uM treated for 5 mins; type: functional, cell-based
Neutrophil [42] = test: Antiinflammatory activity in primary human neutrophils assessed as inhibition of GM-CSF-stimulated chemotaxis at 1 uM after 1 hr by Boyden chamber method; type: functional, cell-based
Mus musculus [43] = test: Antinociceptive activity in ICR mouse at 100 nmol, icv after 20 mins by tail flick test relative to control; type: functional, organism-based
[44] = biological target: Delta-type opioid receptor (Homo sapiens) (UniProt P41143); test: Inhibition of human Gbetagamma-dependent delta opioid receptor-mediated PLC activation expressed in CHO cells assessed as reduction of DPDPE-mediated total inositol phosphate production at 10 uM after 30 mins by scintillation counting analysis in presence of [3H]inositol; type: functional, cell-based
HL-60 [45] = test: Antiinflammatory activity in differentiated human HL60 cells assessed as inhibition of fMLP-stimulated chemotaxis by transwell assay; type: functional, cell-based
[46] = biological target: Guanine nucleotide-binding protein G(I)/G(S)/G(T) subunit beta-1/gamma-2 (Homo sapiens, UniProt P59768+P62873); test: (§1) Inhibition of SIGKAFKILGYPDYD binding to biotinylated Gbeta1gamma2 (unknown origin) incubated for 1 hr by phage ELISA; type: protein-complex assay
[47] = biological target: T1, Guanine nucleotide-binding protein G(I)/G(S)/G(T) subunit beta-1/gamma-2; test: Inhibition of SIGKAFKILGYPDYD binding to biotinylated Gbeta1gamma2 (unknown origin) at 300 uM incubated for 1 hr by phage ELISA; type: protein-complex assay
Target sequence in this assay (P59768 2-71 partner limits assumed): as the sequence (P59768 2-71 limits assumed) above
Target sequence in this assay (P62873 2-340 limits assumed): as the sequence (P62873 2-340 limits assumed) above

[48] = biological target: T1, Guanine nucleotide-binding protein G(I)/G(S)/G(T) subunit beta-1/gamma-2; test: as §1; type: protein-complex assay
Target sequence in this assay (P59768 2-71 partner limits assumed): as the sequence (P59768 2-71 limits assumed) above
Target sequence in this assay (P62873 2-340 limits assumed): as the sequence (P62873 2-340 limits assumed) above

Chain of Mu-type opioid receptor (Homo sapiens) (P35372 whole entry): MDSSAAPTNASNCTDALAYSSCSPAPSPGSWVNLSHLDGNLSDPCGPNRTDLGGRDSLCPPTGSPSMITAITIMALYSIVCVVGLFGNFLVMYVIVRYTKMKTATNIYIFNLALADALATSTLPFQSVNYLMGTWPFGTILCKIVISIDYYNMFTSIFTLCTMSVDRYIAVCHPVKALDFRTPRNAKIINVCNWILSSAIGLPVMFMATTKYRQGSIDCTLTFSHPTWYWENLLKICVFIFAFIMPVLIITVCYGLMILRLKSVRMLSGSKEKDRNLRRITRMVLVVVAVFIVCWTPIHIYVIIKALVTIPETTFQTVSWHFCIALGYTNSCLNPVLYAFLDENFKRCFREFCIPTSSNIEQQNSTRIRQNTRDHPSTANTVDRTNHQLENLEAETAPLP
Chain of Delta-type opioid receptor (Homo sapiens) (P41143 whole entry): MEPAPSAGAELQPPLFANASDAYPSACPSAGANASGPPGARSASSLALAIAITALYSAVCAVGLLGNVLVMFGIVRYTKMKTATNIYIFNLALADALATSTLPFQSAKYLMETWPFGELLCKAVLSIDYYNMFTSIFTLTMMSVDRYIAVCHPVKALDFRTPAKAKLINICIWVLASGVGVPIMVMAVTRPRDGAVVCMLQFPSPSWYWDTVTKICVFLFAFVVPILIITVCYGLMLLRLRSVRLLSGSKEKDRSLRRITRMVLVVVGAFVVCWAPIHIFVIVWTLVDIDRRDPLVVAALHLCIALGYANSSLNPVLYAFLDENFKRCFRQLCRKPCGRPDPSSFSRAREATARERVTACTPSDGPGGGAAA
Chain of Guanine nucleotide-binding protein G(I)/G(S)/G(T) subunit beta-1/gamma-2 (Homo sapiens, UniProt P59768+P62873) (P59768 2-71 partner limits assumed): as the sequence (P59768 2-71 limits assumed) above
Chain of Guanine nucleotide-binding protein G(I)/G(S)/G(T) subunit beta-1/gamma-2 (Homo sapiens, UniProt P59768+P62873) (P62873 2-340 limits assumed): as the sequence (P62873 2-340 limits assumed) above

Structure (SMILES): O=C1c2ccccc2C(=O)c2c(Nc3cc4c5c(ccc6c7ccc8c9c(cc(Nc%10cccc%11c%10C(=O)c%10ccccc%10C%11=O)c(c3c56)c97)-c3ccccc3C8=O)C(=O)c3ccccc3-4)cccc21
IC50 [1]: Not Active

inhibition [2]: Active
inhibition [9]: inactive
inhibition (Mus musculus [12]): Active
inhibition (Mus musculus [23]): inactive
inhibition [26]: Active
inhibition [34]: Active
inhibition (Mus musculus [37]): inactive
inhibition [38]: Active
inhibition [44]: inactive
Structure (SMILES): O=C(O)C1CCCCC1c1c2ccc(=O)c(O)c-2oc2c(O)c(O)ccc12 (centres undefined)
Activity (Mus musculus [3]): Active
Activity (Mus musculus [4]): Active
Activity (HL-60 [5]): inactive
Activity (CHO [6]): inactive
inhibition (HL-60 [7]): Active
ED50 (Mus musculus [8]): 1.3 mg/kg
Activity [10]: Non-toxic
inhibition (CHO [11]): inactive
inhibition (Neutrophil [13]): Active
inhibition (Neutrophil [14]): Active
Activity (Mus musculus [15]): Active
inhibition (Mus musculus [16]): Active
Activity (Mus musculus [17]): Active
inhibition (Mus musculus [18]): Active
inhibition (HL-60 [19]): Active
inhibition (HL-60 [20]): Active
inhibition (Mus musculus [21]): Active
inhibition (HL-60 [22]): Active
inhibition (Mus musculus [24]): Active
inhibition (Mus musculus [25]): Active
inhibition (HL-60 [27]): Active
Activity (CHO [28]): Non-toxic
inhibition (HL-60 [29]): Active
Activity [30]: Non-toxic
Activity (Mus musculus [31]): inactive
Activity (Mus musculus [32]): Non-toxic
Activity (Mus musculus [33]): Non-toxic
Activity (Mus musculus [35]): Non-toxic
Activity (Mus musculus [36]): Active
Activity (CHO [39]): inactive
Activity (HEK293): inactive
inhibition (Mus musculus [40]): Active
inhibition (Mus musculus [41]): Active
inhibition (Neutrophil [42]): inactive
Activity (Mus musculus [43]): inactive
inhibition (HL-60 [45]): inactive

IC50 [46]: 130 nM
Structure (SMILES): O=C(O)c1cccc2cccc(-c3c4ccc(=O)c(O)c-4oc4c(O)c(O)ccc34)c12

inhibition [47]: inactive
inhibition [48]: inactive
Structure (SMILES): O=c1cc2oc3cc(O)c(O)cc3c(-c3ccccc3O)c-2cc1O
